Measurements as given in article PMC5854708, “Grass Carp Prolactin Gene: Structural Characterization and Signal Transduction for PACAP-induced Prolactin Promoter Activity” (Scientific Reports, 2018).
Where two headings read alike, the source gives them in different places.

Tests used:
[1] = test system: grass carp PRL promoter deletion/mutation/truncation constructs in αT3-1 cells; experiment: Deletion, mutagenesis and truncation analysis of PRL promoter activity, dual-luciferase, αT3-1 cells; format: cell-based, grass carp (promoter); rat (αT3-1 cells, as printed); settings: PACAP 10 nM, 24 hrs, n = 4
Procedure: To test the functionality of the grass carp PRL promoter, a series of deletion constructs were prepared by subcloning decreasing lengths of 5′ promoter sequence of PRL gene into the luciferase-expressing reporter pGL3.Basic. […] In this study, the upstream promoter of the carp PRL gene, including pPRL(−1156), pPRL(−914), pPRL(−670), pPRL(−448) and pPRL(−306), acted as strong promoters in αT3-1 cells. […] Subsequently, mutagenesis and truncation analysis were performed to investigate the role of transcription sites in PRL promoter activity.
Figure 3 Deletion, mutagenesis and truncation analysis of PRL promoter activity in αT3-1 cells. (A) Deletion analysis of the oPACAP38-induced PRL promoter activity. […] TEXT PRINTED IN THE PICTURE: (A) oPACAP38: pPRL(-1156).LUC: X 4.80 ± 0.15 *; pPRL(-914).LUC: X 4.51 ± 0.26 *; pPRL(-670).LUC: X 3.85 ± 0.17 *; pPRL(-448).LUC: X 3.79 ± 22 *; pPRL(-306).LUC: X 3.83 ± 0.12 *; pPRL(-166).LUC: X 3.26 ± 0.20 *; pPRL(-124).LUC: X 3.57 ± 0.19 *; pPRL(-57).LUC: X 2.09 ± 0.12 * DOUBTS OF THE COPYIST ABOUT THIS PICTURE: oPACAP38, pPRL(-448).LUC: the error reads '± 22' with no decimal point visible; '0.' may be missing or hidden / oPACAP38, pPRL(-306).LUC: 3.83 or 3.63 (small rotated print crossed by the dotted frame line) / The fold values (X ...) are printed over the oPACAP38 bars, one per promoter construct. […]

PAC1 receptors = settings: cited from earlier work
Excerpt: (§1) PACAP and vasoactive intestinal peptide (VIP) are members of the glucagon/secretin peptide family and have been reported to play roles in PRL regulation. […] In contrast to VIP, the biological actions of PACAP on ...

[2] = test system: PRL gene expression in GH4C1 cells; settings: cited from earlier work
Excerpt: as §1

[3] = test system: PRL promoter in GH3 cells; settings: cAMP-dependent; cited from earlier work
Excerpt: as §1

[4] = test system: PRL secretion / PRL gene expression; settings: mammals, cited from earlier work
Excerpt: as §1

[5] = test system: PRL secretion / PRL mRNA in grass carp pituitary cells; settings: cited from earlier work
Excerpt: In carp model, PACAP nerve fibers can be identified in anterior pituitary overlapping with the distribution of lactotrophs. Furthermore, PAC1 receptors could be detected in grass carp lactotrophs.

[6] = test system: MAPK in SH-SY5Y neuroblastoma cells; settings: human SH-SY5Y neuroblastoma cells; cited from earlier work
Excerpt: (§2) Given that PACAP has been reported to activate MAPK (e.g., in human SH-SY5Y neuroblastoma cells)[24], and PI3K-dependent cascades (e.g., in human neutrophils)[25], the functional role of MAPK and PI3K in PACAP-induced grass carp promoter activity were also examined. […] However, parallel treatment with the PI3K inhibi ...

[7] = test system: PI3K-dependent cascades in neutrophils; settings: human neutrophils; cited from earlier work
Excerpt: as §2

[8] = test system: cAMP production in αT3-1 cells; settings: via PAC1 receptors; cited from earlier work
[9] = test system: pCREB in grass carp pituitary cells; experiment: Western blot of pCREB in primary grass carp pituitary cells; settings: oPACAP38, 24 hrs

pituitary adenylate cyclase-activating peptide [PACAP]
PACAP-stimulated promoter activity upon mutagenesis and truncation of AP-1 site ([1]; AP-1 site −136 to −130, pPRL(−166).Luc): significantly suppressed
PACAP-stimulated promoter activity upon mutagenesis and truncation of C/EBPalpha site ([1]; C/EBPalpha site −226 to −217, pPRL(−306).Luc): significantly suppressed
affinity/specificity at PAC1 receptors (PAC1 receptors): specific for PACAP
effect on PRL gene expression [2]: stimulatory effects
effect on PRL promoter activity [3]: up-regulate PRL promoter activity
effect on PRL secretion ([4]; ref 9, 13): stimulatory
effect on PRL secretion ([4]; ref 14): inhibitory
effect on PRL secretion ([4]; ref 15, 16): no effect
PRL mRNA expression [5]: up-regulated
PRL secretion [5]: up-regulated
MAPK activation [6]: activate MAPK
activation of PI3K-dependent cascades [7]: activate
cAMP production [8]: induced
CREB phosphorylation [9]: significantly enhanced CREB phosphorylation
